One experiment has as its system A2780 cells. Briefly: Effect of RBM3 knockdown on cisplatin resistance (WST-1 viability). The experiment is classed as cell-based, human. The conditions noted are these: cisplatin sensitive cells with anti-RBM3 siRNA 50 nM vs non-exposed cells; cisplatin 1-100 μM; FIG. 24. As for the experimental part: The human ovarian cancer cell line A2780 and the cisplatin-resistant variant A2780 Cp70 were maintained in RPMI-1640 supplemented with glutamine, 10% fetal bovine serum and 1% penicillin/streptomycin in a humidified incubator of 5% CO2 at 37° C. Cisplatin (Sigma) was dissolved in 0.9% NaCl to a stock solution of 1 mg/ml and added to cell cultures to the final concentration (1-100 μM).
Transfection with siRNA against RBM3 (Applied Biosystems, Carlsbad, Calif.) or control siRNA (Applied Biosystems) was performed with Lipofectamine 2000 (Invitrogen, Carlsbad, Calif.) with a final concentration of 50 nM siRNA.
The effect of cisplatin on cell viability was determined by the WST-1 assay as described in Examples, section 12.

For experiment [1], the system named is epithelial ovarian cancer. Briefly: Gene expression analysis of ovarian cancer, recurrence free survival. In kind it is in vivo, human. The settings on record: patients with tumors of high vs low RBM3 expression level; 210 serous samples; FIG. 19. The text has this:
Data was collected from a previously performed microarray study, based on a patient cohort of 285 patients diagnosed with epithelial ovarian cancer between 1992 and 2006. Institutional Review Board approval for patient consent had been obtained for all patients.
The median age of patients was 59 years (ranging from 18-79 years). The inventors decided to exclude data from 18 patients who received neoadjuvant therapy, as the inventors realized that this treatment could possibly influence RBM3 mRNA levels, and might thus lead to biased results. Further, data from 40 patients who didn't receive platinum based therapy were removed from the data set. Of these 227 samples, 210 came from patients with serous cancer, 16 with endometroid and 1 with adenocarcinoma. For statistical analysis only serous samples were considered. Pathology evaluation data existed for all patients, and recurrence free survival was evaluated for RBM3 high as well as RBM3 low mRNA content.

The subject of experiment [2] is A2780 and A2780-Cp70 cells. Briefly: WST-1 cell viability assay after cisplatin treatment. In kind it is cell-based, human. The conditions noted are these: A2780-cp70 compared to parental A2780; cisplatin 0-100 μM, 48 h; FIG. 23. As for the experimental part:
The effect of cisplatin on cell viability was determined by the WST-1 assay (Roche Applied Science) according to the manufacturer's recommendation. A2780 and A2780-Cp70 cells were seeded in 96-well plates at the density of 2500 cells/well in 100 μl appropriate medium a day before addition of cisplatin. The cells were treated with cisplatin (0-100 μM) for 48 h. Samples were made in triplicate. Ten microliters WST-1 solution was added per well and cells were incubated at 37° C. for 4 hr. The absorbance of each well was measured using a scanning multiwell spectrophotometer, ELISA reader at the wavelength of 450 nm and reference wavelength of 690 nm.

The structures appear in SMILES notation.

Consider `N.N.[Cl][Pt][Cl]` [cisplatin], for which the “viability after cisplatin treatment at low RBM3 protein expression” value with A2780 cells is “increased viability”. For the same molecule, in experiment [1], the recurrence free survival result is recorded as “significantly better recurrence free survival”. Also, in experiment [2], the “viability after cisplatin treatment” value is listed as “increased viability”.

The values are drawn from patent US8747910B2, “Prediction of response to platinum-based therapy” (Atlas Antibodies AB, priority 2009, dated 2014).
